Measurements: patent US8940310B2, “Methods of treatment using TLR7 and/or TLR9 inhibitors” (Dynavax Technologies Corporation, priority 2010, dated 2015)
“Also recorded” adds a separate entry of the source.

What was measured:
TLR7 and TLR9 = assay: Tape stripping skin lesions in lupus prone (NZBxNZW)F1 mice; format: in vivo; set-up: key to Dermal inflammation: graded on a scale of 1 to 3; conditions: for Dermal inflammation / Epidermis thickness / Intraepithelial inflammation / Panniculum inflammation / Ulceration: histological score
Procedure: SEQ ID NO:42 (IRS) was used starting the day of the tape stripping during the entire course of the experiments (FIGS. 29A,D,E) or starting at 4 days post injury when the disease is already established (FIGS. 30A,D,E). In both cases SEQ ID NO:42 (IRS) (100 μg; s. c.) was administered twice a week. Also described is the timing of PDC depletion experiments described in FIGS. 29A,F,G. Depleting antibody to PDC anti-120G8 (250 μg; i.p.) were given at day −2 and day 0, eight hours before tape stripping and then given twice a week for the entire duration of the experiment. Experiments were stopped in between 15-23 days after initial tape stripping depending on the progression of the lesions in the untreated groups.
C57BL/6 and 129 mice were purchased from Charles River Laboratories. (NZBxNZW)F1 female mice were purchased from Jackson Laboratories and used at 18-22 weeks of age. MyD88/KO and TLR9/KO mouse colonies were maintained at Simonsen Laboratories and used with age matched C57BL/6 wild type controls at 8-12 weeks of age. Tape stripping was performed after shaving the dorsal area (3×3 cm) using 10 strokes with duct tape. IRS was administered just before tape stripping SC at a distant site. Alternatively, in (NZBxNZW)F1 mice, IRS was administered long term. In certain experiments PDC and neutrophils were depleted with 250 μg of antibody given IP at day −2 and day 0, eight hours before tape stripping. Anti-120G8 (Imgenex) was used for depletion of PDC (Asselin-Paturel et al., 2003), and anti-GR1-LY6G (clone 1A8; Biolegend) was used for depletion of neutrophils (Daley et al., 2008). […] In experiments where PDC were depleted, long term 120G8 depleting antibody was administered. Experiments in (NZBxNZW)F1 were terminated between 15-23 days after initial tape stripping, depending on the progression of the lesions in the untreated groups in each experiment. Percentage of area with open lesions in (NZBxNZW)F1 and normal mice was evaluated with Nikon software NIS-elements.
The biopsy specimens were fixed in formalin and embedded in paraffin. Sections were stained with hematoxylin-eosin. Multiple skin sections of 12-30 mice per group were evaluated in a blinded fashion. The following histological features were assessed and graded on a scale of 1 to 3: i) epidermis thickness ii) degree of ulceration iii) intraepithelial inflammation, iv) dermal inflammation, and v) panniculum inflammation. Histological grading was assigned as follows: 0, normal skin architecture, few dermal leukocytes and regular adnexa; 1, mild inflammation, slight epidermal hyperplasia and signs of dermal fibroblast proliferation; 2, moderate inflammation, noticeable epidermal hyperplasia (two- to four-fold increase in epithelial thickness) with hyperkeratosis, significant leukocyte/neutrophil-granulocyte dermal infiltrate with few macrophages, moderate fibrosclerosis of the dermis, reduction in the number of adnexa, slight degenerative changes of the hypodermic adipose tissue; 3, severe inflammation, marked epidermal hyperplasia (>four-fold increase in epithelial thickness) with hyperkeratosis, formation of keratin-filled craters and cysts, diffuse discontinuity of the epidermal layer (ulceration), extensive dermal infiltrate with abundant neutrophils and macrophages, pronounced dermal fibrosclerosis, vanishing of adnexa and evident degenerative changes of the hypodermic adipose tissue. The different parameters were scored separately and summed to obtained a total disease score (Table 22-1). Statistical significance among groups was calculated with a Mann-Whitney U-test.

TLR7 = target: T1, TLR7 (Mus musculus, UniProt P58681); assay: Tape stripping in TLR9-deficient mice; format: in vivo; conditions: 100 μg sc, 24 hr
T1 construct: endogenous in cells; host or cells: primary splenocytes of BALB/c mice
T1 sequence (P58681 27-1050): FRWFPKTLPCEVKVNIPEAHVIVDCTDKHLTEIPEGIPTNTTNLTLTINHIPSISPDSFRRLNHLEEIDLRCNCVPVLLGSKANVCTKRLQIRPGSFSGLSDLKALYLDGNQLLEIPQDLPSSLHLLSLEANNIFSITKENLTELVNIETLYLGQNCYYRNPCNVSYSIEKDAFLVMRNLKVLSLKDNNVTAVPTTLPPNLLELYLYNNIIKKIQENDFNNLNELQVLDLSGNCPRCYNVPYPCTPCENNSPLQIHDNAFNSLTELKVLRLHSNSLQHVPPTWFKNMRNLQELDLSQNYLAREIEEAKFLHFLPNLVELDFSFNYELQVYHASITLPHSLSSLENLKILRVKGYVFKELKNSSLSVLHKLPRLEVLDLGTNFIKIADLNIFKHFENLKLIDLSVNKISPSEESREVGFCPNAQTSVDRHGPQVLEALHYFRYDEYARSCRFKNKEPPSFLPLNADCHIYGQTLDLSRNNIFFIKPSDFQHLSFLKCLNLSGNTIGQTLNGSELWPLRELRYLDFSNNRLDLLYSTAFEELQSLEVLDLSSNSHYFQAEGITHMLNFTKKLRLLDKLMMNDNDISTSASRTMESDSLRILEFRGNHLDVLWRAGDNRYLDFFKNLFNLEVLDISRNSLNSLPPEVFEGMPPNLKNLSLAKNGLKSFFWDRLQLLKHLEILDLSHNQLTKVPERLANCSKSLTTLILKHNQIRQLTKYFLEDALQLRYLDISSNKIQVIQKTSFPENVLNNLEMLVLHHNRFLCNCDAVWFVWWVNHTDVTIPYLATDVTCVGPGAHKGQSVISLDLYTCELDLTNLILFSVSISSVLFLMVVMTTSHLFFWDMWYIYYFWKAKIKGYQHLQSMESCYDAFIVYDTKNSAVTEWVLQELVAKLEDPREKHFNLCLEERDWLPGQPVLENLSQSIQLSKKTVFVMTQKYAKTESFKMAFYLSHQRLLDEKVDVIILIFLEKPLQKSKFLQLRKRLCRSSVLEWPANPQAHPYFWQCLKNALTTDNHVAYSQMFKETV
Procedure: (A) TLR7−/− (black histograms) and age matched WT C57/BL6 mice (grey histograms) were either left untreated (naive) or tape stripped to provoke inflammation. 24 hr later, skin biopsies were isolated and the levels of proinflammatory genes evaluated by Taqman. n=10 mice is shown (Mean±SEM); * p≦0.05. B) TLR9−/− were tape stripped (black histograms) or tape stripped immediately after treatment (s.c) with the dual TLR7 and TLR9 inhibitor IRS 954 (100 μg; sc) (dashed histograms). Age matched WT C57/BL6 mice were either left untreated (naïve; white histograms) or tape stripped (grey histograms). 24 hr later, skin biopsies were isolated and the levels of proinflammatory genes evaluated by Taqman. n=10 mice is shown (Mean±SEM); * p≦0.05.
C57BL/6 and 129 mice were purchased from Charles River Laboratories. (NZBxNZW)F1 female mice were purchased from Jackson Laboratories and used at 18-22 weeks of age. MyD88/KO and TLR9/KO mouse colonies were maintained at Simonsen Laboratories and used with age matched C57BL/6 wild type controls at 8-12 weeks of age. Tape stripping was performed after shaving the dorsal area (3×3 cm) using 10 strokes with duct tape. IRS was administered just before tape stripping SC at a distant site. […] Percentage of area with open lesions in (NZBxNZW)F1 and normal mice was evaluated with Nikon software NIS-elements.

“5′-TGCTCCTGGAGGGGTTGT-3′ (DNA, backbone not given here) [SEQ ID NO:42]” was tested, and the “induction of IFN-regulated and pro-inflammatory genes” value (TLR7 and TLR9; (NZBxNZW)F1, single injection prior to tape stripping, 24 hr) was “efficiently inhibited this gene induction; also recorded: can be inhibited”, the “Total Disease Score” value (TLR7 and TLR9; IRS (pre-injury)) was 3.2 ± 0.5 and the Dermal inflammation (TLR7 and TLR9; IRS (pre-injury)) was 1.3 ± 0.2. For the same substance, the Epidermis thickness (TLR7 and TLR9; IRS (pre-injury)) was 0.7 ± 0.2, the Intraepithelial inflammation (TLR7 and TLR9; IRS (pre-injury)) was 0.2 ± 0.2 and the Panniculum inflammation (TLR7 and TLR9; IRS (pre-injury)) was 0.8 ± 0.1. The Ulceration (TLR7 and TLR9; IRS (pre-injury)) was 0.0 ± 0.0, the “Total Disease Score” value (TLR7 and TLR9; IRS (therapeutic)) was 3.5 ± 0.4 and the Dermal inflammation (TLR7 and TLR9; IRS (therapeutic)) was 1.2 ± 0.1. The Epidermis thickness (TLR7 and TLR9; IRS (therapeutic)) was 1.0 ± 0.2, the Intraepithelial inflammation (TLR7 and TLR9; IRS (therapeutic)) was 0.2 ± 0.2 and the Panniculum inflammation (TLR7 and TLR9; IRS (therapeutic)) was 1.0 ± 0.0. The Ulceration (TLR7 and TLR9; IRS (therapeutic)) was 0.2 ± 0.1, the “lesions, share of the stripped area” value (TLR7 and TLR9; IRS before skin injury and for the duration, day 15-23) was “less than 15%” and the “surface still covered by open lesions” value (TLR7 and TLR9; IRS beginning at day 4, day 15-23) was 10%. For the same substance, the “CLE-like phenotype / healing of established lesions” value (TLR7 and TLR9; therapeutic treatment from day 4) was “accelerated healing; also recorded: significantly ameliorated CLE-like phenotype”, the “disease onset (skin appearance, histology, gene signatures)” value (TLR7 and TLR9; treatment from the day of tape stripping) was “able to prevent disease onset” and the “inhibition of skin gene expression” value (TLR7) was “completed the inhibition”.
